Assay results reported in article PMC9476334 (Chemico-Biological Interactions, 2022).

Biological target: SARS-CoV-2 spike S1 RBD / ACE2 interaction (S-RBD protein binding to ACE2) (Severe acute respiratory syndrome coronavirus 2, UniProt P0DTC2)
Assay: biochemical

Compound: N=C(N)c1ccc(/N=N/Nc2ccc(C(=N)N)cc2)cc1 [DIZE]
- IC50: 20.6 µM
